In patent publication US9586931B2 (Merck Sharp & Dohme Corp., priority 2012, dated 2017):
“And” between values parts separate entries of the source, which are not always exact repeats. Equal values may be shown once. Where a name gives a salt, the structure may show the parent alone.

The molecules below were run against T1, recombinant human GST-Syk (Homo sapiens, UniProt P43405) (assay: Homogeneous Time-Resolved Fluorescence (HTRF) assay for the recombinant human Syk enzyme). Conditions: recombinant human GST-Syk 5 pM, ATP 25 μM, 10-dose titration 10 μM to 0.508 nM; read-out: rhSYK Activity IC50.
T1 construct: purchased Carna Biosciences 08-176
Assay type: biochemical
Procedure, shortened: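 Detection used time-resolved fluorescence 30 min after adding a quench mix (40 mM EDTA, 15 mM Tris pH 7.5, 0.01% Tween 20) containing 2 nM Europium anti-pTyr antibody and 70 nM streptavidin-APC. This followed 45 min of room-temperature peptide phosphorylation by recombinant GST-tagged human Syk.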

SMILES	IC50
Cc1cc(Nc2cc(C(F)(F)F)ccn2)nc(-c2cn(-c3ccc(C(N)=O)cc3)nn2)c1 [Example 1.15, 4-[4-(4-methyl-6-{[4-(trifluoromethyl)pyridin-2-yl]amino}pyridin-2-yl)-1H-1,2,3-triazol-1-yl]benzamide]	15.4 nM
Cc1cc(Nc2nccc(C(F)(F)F)n2)cc(-c2cn(CCCN3CCNC3=O)nn2)c1 [Example 5.71, 1-{3-[4-(3-methyl-5-{[4-(trifluoromethyl)pyrimidin-2-yl]amino}phenyl)-1H-1,2,3-triazol-1-yl]propyl}imidazolidin-2-one]	152 nM
Cc1cc(Nc2cc(C(F)(F)F)ccn2)nc(-c2cn(C(C)C(=O)NCCc3cn(C)c4ccccc34)nn2)c1 (stereo not drawn) [Example 1.51, N-[2-(1-methyl-1H-indol-3-yl)ethyl]-2-[4-(4-methyl-6-{[4-(trifluoromethyl)pyridin-2-yl]amino}pyridin-2-yl)-1H-1,2,3-triazol-1-yl]propanamide]	186 nM
Cc1cc(Nc2cc(C(F)(F)F)ccn2)nc(-c2cn(C[C@H](O)CC#N)nn2)c1 [Example 5.44, (3R)-3-hydroxy-4-[4-(4-methyl-6-{[4-(trifluoromethyl)pyridin-2-yl]amino}pyridin-2-yl)-1H-1,2,3-thiazol-1-yl]butanenitrile]	4.1 nM and 3.18 nM
Cc1cc(Nc2nccc(C(F)F)n2)cc(-c2cn(C(C)C(C)(O)CO)nn2)c1 (single isomer, unassigned) [Example 30.4, 3-(4-(3-((4-(Difluoromethyl)pyrimidin-2-yl)amino)-5-methylphenyl)-1H-1,2,3-triazol-1-yl)-2-methylbutane-1,2-diol]	11.4 nM
Cc1cc(Nc2cc(C(F)(F)F)ccn2)nc(-c2cn(C(C)C(=O)N[C@H]3C[C@@H]3c3ccccc3)nn2)c1 (stereo partly drawn) [Example 1.40, 2-[4-(4-methyl-6-{[4-(trifluoromethyl)pyridin-2-yl]amino}pyridin-2-yl)-1H-1,2,3-triazol-1-yl]-N-[(1S,2R)-2-phenylcyclopropyl]propanamide]	118 nM
Cc1cc(Nc2nccc(C(F)F)n2)cc(-c2cn(CC3(C)CNC(=O)O3)nn2)c1 (single isomer, unassigned) [Example 7.32, 5-{[4-(3-{[4-(difluoromethyl)pyrimidin-2-yl]amino}-5-methylphenyl)-1H-1,2,3-triazol-1-yl]methyl}-5-methyl-1,3-oxazolidin-2-one]	5 nM
CCOC(=O)C(C)(C)Cc1cn(-c2cc(C)cc(Nc3nccc(C(F)(F)F)n3)c2)nn1 [Example 15.15, ethyl 2,2-dimethyl-3-[1-(3-methyl-5-{[4-(trifluoromethyl)pyrimidin-2-yl]amino}phenyl)-1H-1,2,3-triazol-4-yl]propanoate]	255 nM
Cc1cc(Nc2cc(C(F)(F)F)ccn2)nc(-c2cn(C(C)C(=O)N3CCc4[nH]c5c(Cl)cccc5c4C3)nn2)c1 (stereo not drawn) [Example 1.41, 6-{1-[2-(6-chloro-1,3,4,5-tetrahydro-2H-pyrido[4,3-b]indol-2-yl)-1-methyl-2-oxoethyl]-1H-1,2,3-triazol-4-yl}-4-methyl-N-[4-(trifluoromethyl)pyridin-2-yl]pyridin-2-amine]	131 nM
Cc1cc(Nc2nccc(OCCO)n2)cc(-c2cn(C[C@H](O)CO)nn2)c1 [Example 5.8, (2S)-3-[4-(3-{[4-(2-hydroxyethoxy)pyrimidin-2-yl]amino}-5-methylphenyl)-1H-1,2,3-triazol-1-yl]propane-1,2-diol]	62 nM
Cc1cc(Nc2cc(C(F)(F)F)ccn2)nc(-c2cn(CC3CNC(=O)O3)nn2)c1 (racemic) [Example 5.84, 5-{[4-(4-methyl-6-{[4-(trifluoromethyl)pyridin-2-yl]amino}pyridin-2-yl)-1H-1,2,3-triazol-1-yl]methyl}-1,3-oxazolidin-2-one]	2.1 nM
Cc1cc(Nc2cc(C(F)(F)F)ccn2)nc(-c2cn(C[C@@H](C)CO)nn2)c1 [Example 5.81, (2R)-2-methyl-3-[4-(4-methyl-6-{[4-(trifluoromethyl)pyridin-2-yl]amino}pyridin-2-yl)-1H-1,2,3-triazol-1-yl]propan-1-ol]	6.9 nM
CC(O)(CO)Cn1cc(-c2cccc(Nc3nccc(C(F)(F)F)n3)c2)nn1 (single isomer, unassigned) [Example 21.5, 2-methyl-3-[4-(3-{[4-(trifluoromethyl)pyrimidin-2-yl]amino}phenyl)-1H-1,2,3-triazol-1-yl]propane-1,2-diol]	47 nM
Cc1cc(Nc2cc(C(F)F)ccn2)nc(-c2cn(CC3OC(=O)NC3C)nn2)c1 (single isomer, unassigned) [Example 7.44, 5-{[4-(6-{[4-(difluoromethyl)pyridin-2-yl]amino}-4-methylpyridin-2-yl)-1H-1,2,3-triazol-1-yl]methyl}-4-methyl-1,3-oxazolidin-2-one]	18 nM
Cc1cc(Nc2cc(C(F)(F)F)ccn2)nc(-c2cn([C@H](C)C(N)=O)nn2)c1 [Example 1.23, (2R)-2-[4-(4-methyl-6-{[4-(trifluoromethyl)pyridin-2-yl]amino}pyridin-2-yl)-1H-1,2,3-triazol-1-yl]propanamide]	6.8 nM
COC(=O)C1CCC(O)(Cn2cc(-c3cc(C)cc(Nc4nccc(C(F)(F)F)n4)c3)nn2)CC1(C)C (stereo not drawn) [Example 4.11, methyl 4-hydroxy-2,2-dimethyl-4-{[4-(3-methyl-5-{[4-(trifluoromethyl)pyrimidin-2-yl]amino}phenyl)-1H-1,2,3-triazol-1-yl]methyl}cyclohexanecarboxylate]	145 nM
Cc1cc(Nc2cc(C(F)(F)F)ccn2)nc(-c2cn(C[C@@H]3CNC(=O)O3)nn2)c1 [Example 5.103, (5S)-5-{[4-(4-methyl-6-{[4-(trifluoromethyl)pyridin-2-yl]amino}pyridin-2-yl)-1H-1,2,3-triazol-1-yl]methyl}-1,3-oxazolidin-2-one]	1.9 nM
CCC(CO)n1cc(-c2cc(C)cc(Nc3cc(C(F)(F)F)ccn3)n2)nn1 (stereo not drawn) [Example 13.9, 2-[4-(4-methyl-6-{[4-(trifluoromethyl)pyridin-2-yl]amino}pyridin-2-yl)-1H-1,2,3-triazol-1-yl]butan-1-ol]	2.9 nM
Cc1cc(Nc2nccc(C(F)(F)F)n2)cc(-c2cn(Cc3ccc(C(=O)O)cc3)nn2)c1 [Example 5.21, 4-{[4-(3-methyl-5-{[4-(trifluoromethyl)pyrimidin-2-yl]amino}phenyl)-1H-1,2,3-triazol-1-yl]methyl}benzoic acid]	3.3 nM
Cc1cc(Nc2cc(C(F)(F)F)ccn2)nc(-c2cn([C@H](C)C(=O)N3CCC[C@H]3C(=O)O)nn2)c1 [Example 3.12, 1-{(2R)-2-[4-(4-methyl-6-{[4-(trifluoromethyl)pyridin-2-yl]amino}pyridin-2-yl)-1H-1,2,3-triazol-1-yl]propanoyl}proline]	105 nM
Cc1cc(Nc2cc(C(F)(F)F)ccn2)nc(-c2cn(C(C)C(=O)NCCc3c[nH]c4ccccc34)nn2)c1 (stereo not drawn) [Example 1.29]	124 nM
Cc1cc(Nc2cc(C(F)(F)F)ccn2)nc(-c2nnc(C)n2C)c1 [Example 16.1, 6-(4,5-dimethyl-4H-1,2,4-triazol-3-yl)-4-methyl-N-[4-(trifluoromethyl)pyridin-2-yl]pyridin-2-amine]	650 nM
Cc1cc(Nc2cc(C(F)F)ccn2)nc(-c2cn(CC3CNC(=O)C3)nn2)c1 (single isomer, unassigned) [Example 24.2, 4-((4-(6-((4-(difluoromethyl)pyridin-2-yl)amino)-4-methylpyridin-2-yl)-1H-1,2,3-triazol-1-yl)methyl)pyrrolidin-2-one]	8.6 nM
Cc1cc(Nc2cc(OC3CCCCC3)ccn2)nc(-c2cn(C(C)c3ccc(C(=O)O)cc3)nn2)c1 (stereo not drawn) [Example 2.6, 4-{1-[4-(6-{[4-(cyclohexyloxy)pyridin-2-yl]amino}-4-methylpyridin-2-yl)-1H-1,2,3-triazol-1-yl]ethyl}benzoic acid]	26.6 nM
Cc1cc(Nc2cc(C(F)F)ccn2)nc(-c2cn(C3CCCCC3O)nn2)c1 (single isomer, unassigned) [Example 7.23, 2-[4-(6-{[4-(difluoromethyl)pyridin-2-yl]amino}-4-methylpyridin-2-yl)-1H-1,2,3-triazol-1-yl]cyclohexanol]	3.9 nM
Cc1cc(Nc2nccc(C(F)F)n2)cc(-c2cn(CC3OC(=O)NC3C)nn2)c1 (single isomer, unassigned) [Example 7.6, 5-((4-(3-((4-(difluoromethyl)pyrimidin-2-yl)amino)-5-methylphenyl)-1H-1,2,3-triazol-1-yl)methyl)-4-methyloxazolidin-2-one]	10.2 nM
COC(=O)CNC(=O)[C@H](C)n1cc(-c2cc(C)cc(Nc3cc(C(F)(F)F)ccn3)n2)nn1 [Example 1.1, Methyl N-{(2S)-2-[4-(4-methyl-6-{[4-(trifluoromethyl)pyridin-2-yl]amino}pyridin-2-yl)-1H-1,2,3-triazol-1-yl]propanoyl}glycinate trifluoroacetate]	76.3 nM
Cc1cc(Nc2cc(C(F)(F)F)ccn2)nc(-c2cn(C(C)C(=O)NCc3cccc4nsnc34)nn2)c1 (stereo not drawn) [Example 1.33, N-(2,1,3-benzothiadiazol-4-ylmethyl)-2-[4-(4-methyl-6-{[4-(trifluoromethyl)pyridin-2-yl]amino}pyridin-2-yl)-1H-1,2,3-triazol-1-yl]propanamide]	325 nM
Cc1cc(Nc2nccc(C(F)(F)F)n2)cc(-c2cn(C[C@@]3(O)CC[C@H](C(=O)O)C(C)(C)C3)nn2)c1 (racemic) [Example 4.1, Racemic syn-4-Hydroxy-2,2-dimethyl-4-((4-(3-methyl-5-((4-(trifluoromethyl)pyrimidin-2-yl)amino)phenyl)-1H-1,2,3-triazol-1-yl)methyl)cyclohexane carboxylic acid]	81.4 nM
Cc1cc(Nc2cc(C(F)(F)F)ccn2)nc(-c2cn(C(CO)c3ccc(C(N)=O)cc3)nn2)c1 (stereo not drawn) [Example 1.9, 4-{2-hydroxy-1-[4-(4-methyl-6-{[4-(trifluoromethyl)pyridin-2-yl]amino}pyridin-2-yl)-1H-1,2,3-triazol-1-yl]ethyl}benzamide]	2.9 nM
